Test results: US20050265999A1, “Modulation of 5-HT2 receptors as a treatment for cardiovascular diseases” (Myogen, Inc., priority 2003, published 2005)

Experiments:
[1] = system: 5-HT1; test: Radioligand receptor binding assay
Protocol: (§1) Receptor binding assays. Receptor binding assays were performed by MDS Pharma services. Assays included: Adenosine A1 (cat# 200510), Adenosine A2A (cat# 200610), Adenosine A3 (cat# 200720), Adrenergic alpha 1 (cat# 203500), Imidazoline 12 central (cat# 241000), Imidazoline I2 peripheral (cat# 241100), Inositol triphosphate (cat# 242500), Phorbol Ester (cat# 264500), 5-HT 2B (cat# 271700), and 5-HT 4 (cat# 272000).
(§2) • Summary of radioligand binding assays for 11 receptors. Data represent % inhibition of ligand binding in the presence of 10 μM 18264 (n=2).
• Summary of radioligand binding assays for three receptors. Data represent % inhibition of ligand binding in the presence of 10 μM 20068 (n=2).

[2] = target: T1, 5-HT4 (Cavia porcellus, UniProt O70528); test: Radioligand receptor binding assay (MDS Pharma)
T1 construct: purchased MDS Pharma services 272000
T1 sequence (O70528 whole entry): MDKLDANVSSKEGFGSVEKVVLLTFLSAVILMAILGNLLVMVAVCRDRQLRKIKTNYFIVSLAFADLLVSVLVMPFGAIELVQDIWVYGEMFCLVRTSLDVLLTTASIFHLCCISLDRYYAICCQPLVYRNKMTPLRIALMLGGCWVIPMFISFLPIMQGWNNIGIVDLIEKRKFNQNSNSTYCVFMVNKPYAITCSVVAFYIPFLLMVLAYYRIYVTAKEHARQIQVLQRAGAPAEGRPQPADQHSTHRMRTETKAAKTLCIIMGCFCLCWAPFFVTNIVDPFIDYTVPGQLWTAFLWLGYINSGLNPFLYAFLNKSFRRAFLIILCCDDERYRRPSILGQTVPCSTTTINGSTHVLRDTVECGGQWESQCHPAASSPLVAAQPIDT
Protocol: as §1, §2

[3] = target: T2, Adenosine A1 (Homo sapiens, UniProt P30542); test: Radioligand receptor binding assay (MDS Pharma); settings: 10 μM compound, n=2
T2 construct: purchased MDS Pharma services 200510
T2 sequence (P30542 1-326): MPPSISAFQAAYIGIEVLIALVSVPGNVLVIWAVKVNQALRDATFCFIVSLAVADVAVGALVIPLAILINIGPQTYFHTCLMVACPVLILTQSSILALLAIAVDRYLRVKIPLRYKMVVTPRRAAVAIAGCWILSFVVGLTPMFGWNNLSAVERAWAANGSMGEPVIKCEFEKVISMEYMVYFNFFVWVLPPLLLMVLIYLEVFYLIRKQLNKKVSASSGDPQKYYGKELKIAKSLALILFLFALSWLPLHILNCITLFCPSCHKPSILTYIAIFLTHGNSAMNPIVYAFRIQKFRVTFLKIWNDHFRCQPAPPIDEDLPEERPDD
Protocol: as §1, §2

[4] = target: T3, Adenosine A2A (Homo sapiens, UniProt P29274); test: Radioligand receptor binding assay (MDS Pharma); settings: 10 μM compound, n=2
T3 construct: purchased MDS Pharma services 200610
T3 sequence (P29274 whole entry): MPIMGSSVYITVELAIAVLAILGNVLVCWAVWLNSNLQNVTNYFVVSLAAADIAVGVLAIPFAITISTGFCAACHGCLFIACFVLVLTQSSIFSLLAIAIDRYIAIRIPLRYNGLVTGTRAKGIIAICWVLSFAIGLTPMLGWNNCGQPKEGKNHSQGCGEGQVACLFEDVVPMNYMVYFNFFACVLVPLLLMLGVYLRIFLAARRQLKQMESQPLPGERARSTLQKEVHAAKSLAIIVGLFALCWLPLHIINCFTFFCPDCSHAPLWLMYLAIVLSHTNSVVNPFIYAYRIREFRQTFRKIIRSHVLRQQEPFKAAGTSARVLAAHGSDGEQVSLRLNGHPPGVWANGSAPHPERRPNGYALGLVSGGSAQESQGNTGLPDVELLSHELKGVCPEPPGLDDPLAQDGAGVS
Protocol: as §1, §2

[5] = target: T4, Adenosine A3 (Homo sapiens, UniProt P0DMS8); test: Radioligand receptor binding assay (MDS Pharma); settings: 10 μM compound, n=2
T4 construct: purchased MDS Pharma services 200720
T4 sequence (P0DMS8 1-318): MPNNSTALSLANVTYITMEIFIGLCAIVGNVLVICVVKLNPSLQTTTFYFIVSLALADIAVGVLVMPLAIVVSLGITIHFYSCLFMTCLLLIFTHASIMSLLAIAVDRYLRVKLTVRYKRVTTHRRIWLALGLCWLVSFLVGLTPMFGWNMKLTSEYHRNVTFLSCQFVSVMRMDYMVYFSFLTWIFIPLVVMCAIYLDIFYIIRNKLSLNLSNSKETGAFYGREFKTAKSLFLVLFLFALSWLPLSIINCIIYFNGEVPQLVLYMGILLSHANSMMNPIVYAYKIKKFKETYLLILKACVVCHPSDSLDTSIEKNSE
Protocol: as §1, §2

[6] = system: Adrenergic alpha 1; test: Radioligand receptor binding assay (MDS Pharma); settings: 10 μM compound, n=2
Protocol: as §1, §2

[7] = system: Imidazoline I2, central; test: Radioligand receptor binding assay (MDS Pharma); settings: 10 μM compound, n=2
Protocol: as §1, §2

[8] = system: Imidazoline I2, peripheral; test: Radioligand receptor binding assay (MDS Pharma); settings: 10 μM compound, n=2
Protocol: as §1, §2

[9] = target: T5, Inositol Triphosphate IP3 (Rattus norvegicus, UniProt P29994); test: Radioligand receptor binding assay (MDS Pharma); settings: 10 μM compound, n=2
T5 construct: purchased MDS Pharma services 242500
T5 sequence (P29994 whole entry): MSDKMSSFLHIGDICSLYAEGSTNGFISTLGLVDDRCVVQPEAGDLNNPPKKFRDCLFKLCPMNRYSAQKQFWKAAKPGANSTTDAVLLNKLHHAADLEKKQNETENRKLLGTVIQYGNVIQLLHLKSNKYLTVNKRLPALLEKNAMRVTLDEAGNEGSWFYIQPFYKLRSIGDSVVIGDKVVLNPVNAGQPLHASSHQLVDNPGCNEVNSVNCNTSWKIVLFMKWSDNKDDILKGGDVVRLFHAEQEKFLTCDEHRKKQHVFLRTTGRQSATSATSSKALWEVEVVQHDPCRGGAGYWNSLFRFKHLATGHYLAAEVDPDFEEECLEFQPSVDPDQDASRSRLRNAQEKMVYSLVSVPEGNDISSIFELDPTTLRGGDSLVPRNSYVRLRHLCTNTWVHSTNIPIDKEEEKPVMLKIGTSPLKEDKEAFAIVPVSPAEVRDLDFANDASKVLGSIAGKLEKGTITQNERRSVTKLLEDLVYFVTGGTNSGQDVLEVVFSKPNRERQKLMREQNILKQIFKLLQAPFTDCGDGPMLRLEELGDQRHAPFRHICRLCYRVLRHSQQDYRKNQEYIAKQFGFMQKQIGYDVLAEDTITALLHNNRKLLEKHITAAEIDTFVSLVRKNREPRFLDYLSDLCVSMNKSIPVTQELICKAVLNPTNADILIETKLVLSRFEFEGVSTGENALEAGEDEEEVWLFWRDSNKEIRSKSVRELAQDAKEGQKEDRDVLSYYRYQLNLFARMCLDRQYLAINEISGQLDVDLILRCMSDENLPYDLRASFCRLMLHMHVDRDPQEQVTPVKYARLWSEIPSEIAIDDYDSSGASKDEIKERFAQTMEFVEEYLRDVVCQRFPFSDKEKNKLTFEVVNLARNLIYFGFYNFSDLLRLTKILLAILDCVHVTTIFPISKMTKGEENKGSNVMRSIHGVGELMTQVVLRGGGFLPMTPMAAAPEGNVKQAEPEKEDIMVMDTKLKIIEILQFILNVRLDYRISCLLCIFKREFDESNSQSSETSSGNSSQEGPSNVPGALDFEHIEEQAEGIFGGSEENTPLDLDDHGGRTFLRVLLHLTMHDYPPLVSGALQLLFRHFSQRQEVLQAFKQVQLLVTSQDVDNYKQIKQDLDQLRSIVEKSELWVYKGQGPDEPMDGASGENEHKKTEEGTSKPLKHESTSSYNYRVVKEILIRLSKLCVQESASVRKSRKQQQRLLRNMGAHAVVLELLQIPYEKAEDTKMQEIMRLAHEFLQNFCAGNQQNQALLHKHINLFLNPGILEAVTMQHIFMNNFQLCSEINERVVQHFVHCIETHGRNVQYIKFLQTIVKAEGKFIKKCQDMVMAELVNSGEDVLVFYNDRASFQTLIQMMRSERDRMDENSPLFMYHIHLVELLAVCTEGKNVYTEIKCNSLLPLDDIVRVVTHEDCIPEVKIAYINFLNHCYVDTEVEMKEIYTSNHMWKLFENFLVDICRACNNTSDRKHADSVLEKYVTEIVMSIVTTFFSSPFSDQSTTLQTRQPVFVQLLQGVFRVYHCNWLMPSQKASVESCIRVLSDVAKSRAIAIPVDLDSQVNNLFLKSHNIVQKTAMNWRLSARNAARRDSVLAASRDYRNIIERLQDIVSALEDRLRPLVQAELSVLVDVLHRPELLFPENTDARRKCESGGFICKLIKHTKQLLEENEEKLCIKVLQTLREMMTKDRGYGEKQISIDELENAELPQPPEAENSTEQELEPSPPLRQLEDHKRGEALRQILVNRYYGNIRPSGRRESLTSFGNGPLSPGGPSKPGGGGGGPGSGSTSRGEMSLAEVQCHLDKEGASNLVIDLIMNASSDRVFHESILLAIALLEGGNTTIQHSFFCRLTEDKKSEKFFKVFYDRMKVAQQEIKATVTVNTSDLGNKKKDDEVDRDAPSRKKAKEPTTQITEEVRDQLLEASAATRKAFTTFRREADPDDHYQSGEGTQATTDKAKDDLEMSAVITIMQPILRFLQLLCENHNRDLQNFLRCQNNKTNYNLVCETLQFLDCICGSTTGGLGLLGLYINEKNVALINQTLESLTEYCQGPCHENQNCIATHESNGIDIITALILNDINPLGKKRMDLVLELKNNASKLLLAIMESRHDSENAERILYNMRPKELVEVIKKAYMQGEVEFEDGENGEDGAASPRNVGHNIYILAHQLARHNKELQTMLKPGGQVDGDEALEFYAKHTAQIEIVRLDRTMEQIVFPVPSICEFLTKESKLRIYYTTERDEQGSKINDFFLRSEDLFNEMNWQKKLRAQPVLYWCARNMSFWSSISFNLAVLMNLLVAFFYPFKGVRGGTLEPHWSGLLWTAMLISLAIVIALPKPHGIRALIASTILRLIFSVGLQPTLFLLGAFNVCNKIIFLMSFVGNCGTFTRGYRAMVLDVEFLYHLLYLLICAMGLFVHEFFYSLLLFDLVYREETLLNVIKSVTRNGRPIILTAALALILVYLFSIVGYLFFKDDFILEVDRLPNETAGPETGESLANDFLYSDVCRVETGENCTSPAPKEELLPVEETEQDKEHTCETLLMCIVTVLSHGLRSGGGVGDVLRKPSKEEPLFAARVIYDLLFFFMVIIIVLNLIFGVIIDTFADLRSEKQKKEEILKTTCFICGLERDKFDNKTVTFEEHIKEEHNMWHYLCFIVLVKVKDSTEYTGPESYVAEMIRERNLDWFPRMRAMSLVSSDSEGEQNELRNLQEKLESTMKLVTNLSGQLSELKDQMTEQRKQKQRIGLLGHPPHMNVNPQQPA
Protocol: as §1, §2

[10] = system: Phorbol Ester; test: Radioligand receptor binding assay (MDS Pharma); settings: 10 μM compound, n=2
Protocol: as §1, §2

[11] = system: neonatal rat ventricular myocytes (NRVM); test: ANF secretion by competitive ELISA in NRVM; type: cell-based; settings: NRVM stimulated with compound alone
Protocol: NRVM culture. For preparations of neonatal rat ventricular myocytes (NRVMs), hearts were removed from 10-20 newborn (1-2 days old) Sprague-Dawley rats. Isolated ventricles were pooled, minced and dispersed by three 20-min incubations at 37° C. in Ads buffer (116 mM NaCl, 20 mM HEPES, 10 mM NaH2PO4, 5.5 mM glucose, 5 mM KCl, 0.8 mM MgSO4, pH 7.4) containing collagenase Type II (65 units/ml, Worthington) and pancreatin (0.6 mg/ml, GibcoBRL). Dispersed cells were applied to a discontinuous gradient of 40.5% and 58.5% (v/v) Percoll (Amersham Biosciences), centrifuged, and myocytes collected from the interface layer. Myocyte preparations were pre-plated in Dulbecco's modified Eagle's medium (DMEM, Cellgro), supplemented with 10% (v/v) fetal bovine serum (FBS, HyClone), 4 mM L-glutamine and 1% penicillin/streptomycin for 1 hour at 37° C. to reduce fibroblast contamination, then plated at a density of 2.5×10^5 cells per well on 6-well tissue culture plates (or 10,000 cells/well on 96-well tissue culture plates) coated with a 0.2% (w/v) gelatin solution. […]
(§3) Hypertrophy and toxicity assays. Primary hypertrophy endpoints for NRVM included quantitation of: ANF secretion, total cellular protein and cell volume. ANF in media supernatants was quantitated by competitive ELISA using a monoclonal anti-ANF antibody (Biodesign) and a biotinylated ANF peptide (Phoenix Peptide). Total cellular protein was quantitated by standard Coomassie dye-binding assay; cells were lysed in protein assay reagent (BioRad) and absorbance at A595 was measured after 1 hour. […] After recovery by centrifugation, cell pellets were washed in PBS, resuspended in 10 ml IsoFlow electrolyte solution (Beckman-Coulter) and analyzed with a Z2 Coulter Particle Counter and Size Analyzer (Beckman-Coulter). Cytotoxicity was quantitated by measuring release of adenylate kinase (AK) from cultured NRVM into culture medium (ToxiLight kit, Cambrex).

[12] = system: neonatal rat ventricular myocytes (NRVM); test: Total cellular protein (Coomassie dye-binding) in NRVM; type: cell-based; settings: NRVM stimulated with compound alone
Protocol: NRVM culture. For preparations of neonatal rat ventricular myocytes (NRVMs), hearts were removed from 10-20 newborn (1-2 days old) Sprague-Dawley rats. Isolated ventricles were pooled, minced and dispersed by three 20-min incubations at 37° C. in Ads buffer (116 mM NaCl, 20 mM HEPES, 10 mM NaH2PO4, 5.5 mM glucose, 5 mM KCl, 0.8 mM MgSO4, pH 7.4) containing collagenase Type II (65 units/ml, Worthington) and pancreatin (0.6 mg/ml, GibcoBRL). Dispersed cells were applied to a discontinuous gradient of 40.5% and 58.5% (v/v) Percoll (Amersham Biosciences), centrifuged, and myocytes collected from the interface layer. […]
as §3, with “Cytotoxicity was quantitated by measuring release of adenylate kinase (AK) from cultured NRVM into culture medium (ToxiLight kit, Cambrex).” left out

Compound: Cc1c(-c2ccccc2)nc2sc3c(c2c1N)CCCC3 [Compound 18264, 3-Methyl-2-phenyl-5,6,7,8-tetrahydro-benzo[4,5]thieno[2,3-b]pyridin-4-ylamine]
- % Inhibition of Binding ([1]; 10 μM compound, n=2): −25%
- binding (in words) ([1]; radioligand binding, 10 μM): No significant binding
- inhibition at 10 µM ([2]; 10 μM compound, n=2): 17%
- binding (in words) ([2]; radioligand binding, 10 μM): No significant binding
- inhibition at 10 µM [3]: 17%
- inhibition at 10 µM [4]: 14%
- inhibition at 10 µM [5]: 24%
- % Inhibition of Binding [6]: 17%
- % Inhibition of Binding [7]: 15%
- % Inhibition of Binding [8]: 4%
- inhibition at 10 µM [9]: 3%
- % Inhibition of Binding [10]: 2%
- ANF expression/secretion [11]: up-regulated ANF expression
- total cellular protein [12]: increased
